The values below come from US9907776B2 (priority 2013, dated 2018).

Test [1] concerns corneally kindled seizures. The test can be described thus: animal or person. The class given is in vivo, Sprague-Dawley rats. The settings on record: Rattus norvegicus, po.
Test [2] relates to PTZ (Pentylenetetrazol) induced clonic seizure. The test can be described thus: animal or person. In kind it is in vivo, Rats; SD. The settings on record: for PTZ test (ip) Protection % (Rats): rat, in vivo.
Test [3] shares this test system. Set-up: species or system Mouse; ICR. The settings on record: mouse, in vivo.
For test [4], the system named is hippocampal kindled seizures. The test can be described thus: animal or person. The class given is in vivo, Sprague-Dawley rats. The settings on record: Rattus norvegicus, ip, read-out: HK (ip) ED50.
Where [5] appears, read: read-out: CK(po) Protection % (Rats).

As usually defined, the ED50 is the dose at which the effect has come halfway, by size or by number of responders. As to `CC(OC(N)=O)C(O)c1ccccc1Cl` (racemic) [Example 3, 1-(2-chlorophenyl)-1-hydroxypropyl-2-carbamate], the responders at 10 mg/kg in test [1] (setting [5]) turned out to be 50%. Moreover, in test [2] (Rattus norvegicus, ip, read-out: PTZ test (ip) Rats ED50), the ED50 was 81.9 mg/kg.

With `CCC(OC(N)=O)C(O)c1ccccc1Cl` (racemic) [Example 8, 1-(2-chlorophenyl)-1-hydroxybutyl-2-carbamate], in test [3], the “PTZ test (ip) Protection % (Mice)” value was “^a20.4 (50%)^”.

`CCCCC(OC(N)=O)C(O)c1ccccc1Cl` (racemic) [Example 14, 1-(2-chlorophenyl)-1-hydroxyhexyl-2-carbamate]: the “PTZ test (ip) Protection % (Mice)” value in test [3] is “^a20.4 (16.7%)”.

With `CNC(=O)OC(C)C(O)c1ccccc1Cl` (racemic) [Example 29, 1-(2-chlorophenyl)-1-hydroxypropyl-2-N-methylcarbamate], the “PTZ test (ip) Protection % (Mice)” value in test [3] was “^a20.4 (33.3%)”.

For `CCCNC(=O)OC(C)C(O)c1ccccc1Cl` (racemic) [Example 30, 1-(2-chlorophenyl)-1-hydroxypropyl-2-N-propylcarbamate], the “PTZ test (ip) Protection % (Mice)” value in test [3] is given as “^a20.4 (33.3%)”.

As to `CC(C)NC(=O)OC(C)C(O)c1ccccc1Cl` (racemic) [Example 31, 1-(2-chlorophenyl)-1-hydroxypropyl-2-N-isopropylcarbamate], the “PTZ test (ip) Protection % (Mice)” value in test [3] is on record as “^a20.4 (83.3%)”.

`CC(OC(=O)NC1CC1)C(O)c1ccccc1Cl` (racemic) [Example 32, 1-(2-chlorophenyl)-1-hydroxypropyl-2-N-cyclopropylcarbamate]: in test [3], the “PTZ test (ip) Protection % (Mice)” value is “^a20.4 (16.7%)”.

In the case of `C[C@H](OC(N)=O)[C@@H](O)c1ccccc1Cl` [Example 1, 1-(2-chlorophenyl)-(S)-1-hydroxypropyl-(S)-2-carbamate], the 50% effective dose (ED50) in test [4] came out at 17.6 mg/kg; in test [1] (read-out: CK(po) ED50), 2.8 mg/kg.

Regarding `C[C@@H](OC(N)=O)[C@H](O)c1ccccc1Cl` [Example 2, 1-(2-chlorophenyl)-(R)-1-hydroxypropyl-(R)-2-carbamate], the responders at 20 mg/kg in test [1] (setting [5]) worked out at 16.7%.

For `C[C@@H](OC(N)=O)[C@@H](O)c1ccccc1Cl` [Example 4, 1-(2-chlorophenyl)-(S)-1-hydroxypropyl-(R)-2-carbamate], the responders at 30 mg/kg in test [1] (setting [5]) is 100%.

For `C[C@H](OC(N)=O)[C@H](O)c1ccccc1Cl` [Example 5, 1-(2-chlorophenyl)-(R)-1-hydroxypropyl-(S)-2-carbamate], the responders at 30 mg/kg in test [1] (setting [5]) came out at 50%.

As for `CC[C@H](OC(N)=O)[C@@H](O)c1ccccc1Cl` [Example 6, 1-(2-chlorophenyl)-(S)-1-hydroxybutyl-(S)-2-carbamate], the responders at 10 mg/kg in test [1] (setting [5]) stood at 33.3%. Further, the “PTZ test (ip) Protection % (Rats)” value in test [2] was “^b30 (50%)^”.

As to `CC(C)[C@H](OC(N)=O)[C@@H](O)c1ccccc1Cl` [Example 9, 1-(2-chlorophenyl)-(S)-1-hydroxy-3-methyl-butyl-(S)-2-carbamate], the “PTZ test (ip) Protection % (Mice)” value in test [3] is given as “^a20.4 (33.3%)”. Further, the responders at 30 mg/kg in test [1] (setting [5]) came to 16.7%.

Take `CCCC[C@H](OC(N)=O)[C@@H](O)c1ccccc1Cl` [Example 12, 1-(2-chlorophenyl)-(S)-1-hydroxyhexyl-(S)-2-carbamate]: the “PTZ test (ip) Protection % (Mice)” value in test [3] is “^a20.4 (33.3%)”.

With `CCCC[C@@H](OC(N)=O)[C@H](O)c1ccccc1Cl` [Example 13, 1-(2-chlorophenyl)-(R)-1-hydroxyhexyl-(R)-2-carbamate], the “PTZ test (ip) Protection % (Mice)” value in test [3] was “^a20.4 (50%)^”.

For the compound `CNC(=O)O[C@@H](C)[C@@H](O)c1ccccc1Cl` [Example 15, 1-(2-chlorophenyl)-(S)-1-hydroxypropyl-(S)-2-N-methylcarbamate], the “PTZ test (ip) Protection % (Rats)” value in test [2] was “^b25 (33.3%)”.

As for `CCCNC(=O)O[C@@H](C)[C@@H](O)c1ccccc1Cl` [Example 16, 1-(2-chlorophenyl)-(S)-1-hydroxypropyl-(S)-2-N-propylcarbamate], the “PTZ test (ip) Protection % (Rats)” value in test [2] is on record as “^b30 (33.3%)”.

For the compound `C[C@H](OC(=O)NC1CC1)[C@@H](O)c1ccccc1Cl` [Example 18, 1-(2-chlorophenyl)-(S)-1-hydroxypropyl-(R)-2-N-cyclopropylcarbamate], the “PTZ test (ip) Protection % (Rats)” value in test [2] was “^b30 (16.7%)”.

On to `CCCNC(=O)O[C@H](C)[C@H](O)c1ccccc1Cl` [Example 23, 1-(2-chlorophenyl)-(R)-1-hydroxypropyl-(R)-2-N-propylcarbamate], for which the “PTZ test (ip) Protection % (Mice)” value in test [3] is recorded as “^a20.4 (50%)^”.

Turning to `C[C@@H](OC(=O)NC1CC1)[C@H](O)c1ccccc1Cl` [Example 25, 1-(2-chlorophenyl)-(R)-1-hydroxypropyl-(R)-2-N-cyclopropylcarbamate], in test [3], the “PTZ test (ip) Protection % (Mice)” value is given as “^a20.4 (66.7%)”.

For `C[C@H](OC(N)=O)[C@@H](O)c1ccc(Cl)cc1Cl` [Example 36, 1-(2,4-dichlorophenyl)-(S)-1-hydroxypropyl-(S)-2-carbamate], the “PTZ test (ip) Protection % (Mice)” value in test [3] is listed as “^a20.4 (33.3%)”. The responders at 30 mg/kg in test [1] (setting [5]) was 50%.

As for `C[C@H](OC(N)=O)[C@@H](O)c1c(Cl)cccc1Cl` [Example 37, 1-(2,6-dichlorophenyl)-(S)-1-hydroxypropyl-(S)-2-carbamate], the responders at 10 mg/kg in test [1] (setting [5]) was found to be 33.3%. The “PTZ test (ip) Protection % (Rats)” value in test [2] was “^b30 (50%)^”.

`C[C@H](OC(N)=O)[C@@H](O)c1cccc(Cl)c1Cl` [Example 38, 1-(2,3-dichlorophenyl)-(S)-1-hydroxypropyl-(S)-2-carbamate]: the “PTZ test (ip) Protection % (Mice)” value in test [3] is given as “^a20.4 (50%)^”. Further, the responders at 30 mg/kg in test [1] (setting [5]) worked out at 50%.

For the compound `CC[C@H](OC(N)=O)[C@@H](O)c1ccc(Cl)cc1Cl` [Example 39, 1-(2,4-dichlorophenyl)-(S)-1-hydroxybutyl-(S)-2-carbamate], in test [1] (setting [5]), the responders at 25 mg/kg turned out to be 100%.

On to `CC[C@H](OC(N)=O)[C@@H](O)c1c(Cl)cccc1Cl` [Example 40, 1-(2,6-dichlorophenyl)-(S)-1-hydroxybutyl-(S)-2-carbamate], for which the “PTZ test (ip) Protection % (Mice)” value in test [3] was “^a20.4 (33.3%)”.

Consider `CC(C)[C@H](OC(N)=O)[C@@H](O)c1c(Cl)cccc1Cl` [Example 42, 1-(2,6-dichlorophenyl)-(S)-1-hydroxy-3-methyl-butyl-(S)-2-carbamate], for which the “PTZ test (ip) Protection % (Mice)” value in test [3] is recorded as “^a20.4 (50%)^”.

In the case of `CCCC[C@H](OC(N)=O)[C@@H](O)c1ccc(Cl)cc1Cl` [Example 43, 1-(2,4-dichlorophenyl)-(S)-1-hydroxyhexyl-(S)-2-carbamate], the “PTZ test (ip) Protection % (Rats)” value in test [2] is given as “^b25 (33.3%)”.

As for `CCCC[C@H](OC(N)=O)[C@@H](O)c1c(Cl)cccc1Cl` [Example 44, 1-(2,6-dichlorophenyl)-(S)-1-hydroxyhexyl-(S)-2-carbamate], the “PTZ test (ip) Protection % (Mice)” value in test [3] is reported as “^a20.4 (33.3%)”.

`C[C@@H](OC(N)=O)[C@H](O)c1ccc(Cl)cc1Cl` [Example 45, 1-(2,4-dichlorophenyl)-(R)-1-hydroxypropyl-(R)-2-carbamate]: the “PTZ test (ip) Protection % (Mice)” value in test [3] is “^a20.4 (16.7%)”. Moreover, the “PTZ test (ip) Protection % (Rats)” value in test [2] was “^b50 (16.7%)”.

As to `C[C@@H](OC(N)=O)[C@H](O)c1c(Cl)cccc1Cl` [Example 46, 1-(2,6-dichlorophenyl)-(R)-1-hydroxypropyl-(R)-2-carbamate], the “PTZ test (ip) Protection % (Mice)” value in test [3] was “^a20.4 (50%)^”. The responders at 20 mg/kg in test [1] (setting [5]) was found to be 50%.

Regarding `C[C@H](OC(N)=O)[C@@H](O)c1ccccc1F` [Example 63, 1-(2-fluorophenyl)-(S)-1-hydroxypropyl-(S)-2-carbamate], the “PTZ test (ip) Protection % (Mice)” value in test [3] was “^a20.4 (50%)^”. Also, the responders at 20 mg/kg in test [1] (setting [5]) came out at 100%.

As for `C[C@H](OC(N)=O)[C@@H](O)c1ccccc1I` [Example 65, 1-(2-iodophenyl)-(S)-1-hydroxypropyl-(S)-2-carbamate], in test [3], the “PTZ test (ip) Protection % (Mice)” value is recorded as “^a20.4 (100%)”. In addition, in test [1] (setting [5]), the responders at 2.8 mg/kg was 33.3%.

For `CC[C@H](OC(N)=O)[C@@H](O)c1ccccc1I` [Example 67, 1-(2-iodophenyl)-(S)-1-hydroxybutyl-(S)-2-carbamate], in test [1] (setting [5]), the responders at 30 mg/kg was found to be 100%. In addition, the “PTZ test (ip) Protection % (Rats)” value in test [2] is given as “^b30 (33.3%)”.
